What all share (type): cell-based
In assay [1] the target is T1, CaV2.2 (Homo sapiens, UniProt Q00975).
T1 construct: expressed in transfected cells; host or cells: HEK293
Description: VIPR optical membrane potential assay with electrical stimulation, CaV2.2. The settings on record: Table 9, CaV 2.2 receptors. The method, boiled down: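 HEK293 cells stably expressing CaV2.2 stained with CC2-DMPE/DiSBAC2(3) voltage-sensitive dyes (10 μM final CC2-DMPE, 30 min, RT), then compound added and cells electrically stimulated for 3-5 s. Read-out: background-subtracted 460/580 nm emission ratio; response R=Rf/Ri (post- vs pre-stimulus ratio); antagonism seen as reduced response.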

Assay [2] concerns the target T2, NaV1.3 (Homo sapiens, UniProt Q9NY46).
T2 construct: expressed in transfected cells; host or cells: HEK293
Description: VIPR optical membrane potential assay with electrical stimulation, NaV1.3. The following applies: Table 9, NaV 1.3 receptors. The method, boiled down: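 HEK293 cells stably expressing NaV1.3, stained with CC2-DMPE (10 μM final) then DiSBAC2(3) with ABSC1, 30 min each at RT; compounds added with oxonol. Electrical stimulation for 3 s; 460/580 nm background-subtracted emission ratio Rf/Ri, normalised to tetracaine (positive) and untreated (negative) controls.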

Assay [3] deals with NaV1.8 (Homo sapiens, UniProt Q9Y5Y9). The assay is described as follows: VIPR optical membrane potential assay, NaV1.8 (other subtypes in an analogous mode). The settings on record: Table 9, NaV 1.8 receptors. The method, then: Antagonist properties of test compounds were assessed as follows. Cells expressing the NaV of interest were placed into microtiter plates. After an incubation period, the cells were stained with fluorescent dyes sensitive to the transmembrane potential. The test compounds were added to the microtiter plate. The cells were stimulated with either chemical or electrical means to evoke a NaV dependent membrane potential change from unblocked channels, which was detected and measured with trans-membrane potential-sensitive dyes. Antagonists were detected as a decreased membrane potential response to the stimulus.
24 hours before the assay on VIPR, CHO cells endogenously expressing a NaV 1.2 type voltage-gated NaV are seeded in 96-well poly-lysine coated plates at 60,000 cells per well. […] Plates are incubated in the dark for 30 minutes at room temperature. • 4) While the cells are being stained with coumarin, a […] oxonol solution in BS#2 is prepared. […] As before, the residual volume should be 40 μL. • 6) Upon removing the bath, the cells are loaded with 80 μL of the DiSBAC2(3) solution, after which test compound, dissolved in DMSO, is added to achieve the desired test concentration to each well from the drug addition plate and mixed thoroughly. The volume in the well should be roughly 121 μL. The cells are then incubated for 20-30 minutes. • 7) Once the incubation is complete, the cells are ready to be assayed on VIPR® with a sodium addback protocol. 120 μL of Bath solution #1 is added to stimulate the NaV dependent depolarization. […] tetracaine was used as an antagonist positive control for block of the NaV channel. Analysis of VIPR® Data:
The following is an example of how NaV1.3 inhibition activity is measured using the optical membrane potential method#2. Other subtypes are performed in an analogous mode in a cell line expressing the NaV of interest.

Among the data in patent US8546414B2, “Ion channel modulators and methods of use” (Vertex Pharmaceuticals Incorporated, priority 2004, dated 2013) are IC50 values, retold here.

Structures are written as SMILES.

T1 sequence (Q00975 whole entry): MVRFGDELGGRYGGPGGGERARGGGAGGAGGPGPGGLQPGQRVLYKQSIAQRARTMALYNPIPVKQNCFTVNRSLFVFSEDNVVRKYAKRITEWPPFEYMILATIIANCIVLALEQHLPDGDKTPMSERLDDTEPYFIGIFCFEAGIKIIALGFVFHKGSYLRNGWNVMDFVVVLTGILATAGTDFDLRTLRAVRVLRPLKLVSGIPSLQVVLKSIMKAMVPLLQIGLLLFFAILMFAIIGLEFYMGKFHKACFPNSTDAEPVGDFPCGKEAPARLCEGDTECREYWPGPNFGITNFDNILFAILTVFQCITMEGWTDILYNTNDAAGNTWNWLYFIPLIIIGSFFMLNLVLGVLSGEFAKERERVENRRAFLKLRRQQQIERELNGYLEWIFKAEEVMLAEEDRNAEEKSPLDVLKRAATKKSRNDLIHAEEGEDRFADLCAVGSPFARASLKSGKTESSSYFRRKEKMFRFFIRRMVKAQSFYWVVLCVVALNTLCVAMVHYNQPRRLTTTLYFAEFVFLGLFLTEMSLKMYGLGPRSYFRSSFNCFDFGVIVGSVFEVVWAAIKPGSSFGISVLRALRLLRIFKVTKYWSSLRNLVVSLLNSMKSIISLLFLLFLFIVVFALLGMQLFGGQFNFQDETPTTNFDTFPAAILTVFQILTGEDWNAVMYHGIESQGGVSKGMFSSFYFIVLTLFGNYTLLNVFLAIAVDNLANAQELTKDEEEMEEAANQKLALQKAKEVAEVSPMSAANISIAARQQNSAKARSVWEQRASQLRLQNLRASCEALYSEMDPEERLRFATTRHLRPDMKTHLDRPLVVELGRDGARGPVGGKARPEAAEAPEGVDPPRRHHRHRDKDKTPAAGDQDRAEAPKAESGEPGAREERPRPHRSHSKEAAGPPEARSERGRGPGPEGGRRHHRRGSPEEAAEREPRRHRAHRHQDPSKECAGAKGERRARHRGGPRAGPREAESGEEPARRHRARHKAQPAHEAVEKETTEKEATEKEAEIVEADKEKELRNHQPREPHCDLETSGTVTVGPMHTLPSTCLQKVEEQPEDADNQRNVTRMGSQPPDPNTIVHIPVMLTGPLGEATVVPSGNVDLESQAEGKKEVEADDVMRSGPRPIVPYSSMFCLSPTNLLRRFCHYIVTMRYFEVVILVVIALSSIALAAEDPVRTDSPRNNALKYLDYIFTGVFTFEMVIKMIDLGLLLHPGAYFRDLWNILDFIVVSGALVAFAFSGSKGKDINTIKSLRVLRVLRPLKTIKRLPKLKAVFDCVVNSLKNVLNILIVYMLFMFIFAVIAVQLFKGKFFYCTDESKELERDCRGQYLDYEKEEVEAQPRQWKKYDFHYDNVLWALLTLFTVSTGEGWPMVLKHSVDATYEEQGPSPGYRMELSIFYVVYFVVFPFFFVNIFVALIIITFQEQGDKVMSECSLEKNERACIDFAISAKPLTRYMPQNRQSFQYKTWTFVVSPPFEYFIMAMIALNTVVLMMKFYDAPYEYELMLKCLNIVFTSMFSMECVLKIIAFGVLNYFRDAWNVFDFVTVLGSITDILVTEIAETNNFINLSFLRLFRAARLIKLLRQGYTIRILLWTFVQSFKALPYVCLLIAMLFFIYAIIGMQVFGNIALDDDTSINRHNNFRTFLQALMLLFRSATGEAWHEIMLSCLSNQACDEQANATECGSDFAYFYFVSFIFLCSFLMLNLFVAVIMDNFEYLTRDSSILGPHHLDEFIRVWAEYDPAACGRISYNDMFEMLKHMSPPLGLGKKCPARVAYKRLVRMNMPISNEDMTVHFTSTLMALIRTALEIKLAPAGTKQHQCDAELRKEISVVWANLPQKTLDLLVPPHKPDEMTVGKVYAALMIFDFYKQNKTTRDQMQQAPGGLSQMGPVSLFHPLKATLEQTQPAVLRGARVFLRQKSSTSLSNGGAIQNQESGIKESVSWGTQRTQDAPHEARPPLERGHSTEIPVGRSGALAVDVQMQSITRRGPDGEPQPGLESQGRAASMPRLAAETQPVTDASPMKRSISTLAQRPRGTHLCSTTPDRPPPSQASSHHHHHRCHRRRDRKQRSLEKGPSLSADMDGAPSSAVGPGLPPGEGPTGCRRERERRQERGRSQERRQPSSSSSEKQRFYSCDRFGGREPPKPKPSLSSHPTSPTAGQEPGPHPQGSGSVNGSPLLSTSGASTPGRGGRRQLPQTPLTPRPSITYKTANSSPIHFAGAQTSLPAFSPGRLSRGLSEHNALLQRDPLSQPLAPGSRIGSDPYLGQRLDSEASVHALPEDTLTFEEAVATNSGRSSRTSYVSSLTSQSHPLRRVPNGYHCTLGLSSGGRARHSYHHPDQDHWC
T1 sequence (P54284 whole entry partner): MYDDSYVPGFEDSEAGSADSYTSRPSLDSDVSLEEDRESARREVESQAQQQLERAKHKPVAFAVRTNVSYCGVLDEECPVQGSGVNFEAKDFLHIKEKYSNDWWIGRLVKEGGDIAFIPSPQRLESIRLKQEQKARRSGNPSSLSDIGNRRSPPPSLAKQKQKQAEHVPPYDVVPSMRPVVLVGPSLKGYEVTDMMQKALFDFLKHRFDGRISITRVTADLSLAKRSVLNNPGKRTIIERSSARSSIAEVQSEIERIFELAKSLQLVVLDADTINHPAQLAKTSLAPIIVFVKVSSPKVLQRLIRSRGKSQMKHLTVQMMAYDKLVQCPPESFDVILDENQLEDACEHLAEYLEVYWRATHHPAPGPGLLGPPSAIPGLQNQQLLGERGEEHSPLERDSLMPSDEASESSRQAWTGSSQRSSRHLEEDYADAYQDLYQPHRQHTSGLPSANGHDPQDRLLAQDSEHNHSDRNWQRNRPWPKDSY
T1 sequence (P54289 25-956 partner limits assumed): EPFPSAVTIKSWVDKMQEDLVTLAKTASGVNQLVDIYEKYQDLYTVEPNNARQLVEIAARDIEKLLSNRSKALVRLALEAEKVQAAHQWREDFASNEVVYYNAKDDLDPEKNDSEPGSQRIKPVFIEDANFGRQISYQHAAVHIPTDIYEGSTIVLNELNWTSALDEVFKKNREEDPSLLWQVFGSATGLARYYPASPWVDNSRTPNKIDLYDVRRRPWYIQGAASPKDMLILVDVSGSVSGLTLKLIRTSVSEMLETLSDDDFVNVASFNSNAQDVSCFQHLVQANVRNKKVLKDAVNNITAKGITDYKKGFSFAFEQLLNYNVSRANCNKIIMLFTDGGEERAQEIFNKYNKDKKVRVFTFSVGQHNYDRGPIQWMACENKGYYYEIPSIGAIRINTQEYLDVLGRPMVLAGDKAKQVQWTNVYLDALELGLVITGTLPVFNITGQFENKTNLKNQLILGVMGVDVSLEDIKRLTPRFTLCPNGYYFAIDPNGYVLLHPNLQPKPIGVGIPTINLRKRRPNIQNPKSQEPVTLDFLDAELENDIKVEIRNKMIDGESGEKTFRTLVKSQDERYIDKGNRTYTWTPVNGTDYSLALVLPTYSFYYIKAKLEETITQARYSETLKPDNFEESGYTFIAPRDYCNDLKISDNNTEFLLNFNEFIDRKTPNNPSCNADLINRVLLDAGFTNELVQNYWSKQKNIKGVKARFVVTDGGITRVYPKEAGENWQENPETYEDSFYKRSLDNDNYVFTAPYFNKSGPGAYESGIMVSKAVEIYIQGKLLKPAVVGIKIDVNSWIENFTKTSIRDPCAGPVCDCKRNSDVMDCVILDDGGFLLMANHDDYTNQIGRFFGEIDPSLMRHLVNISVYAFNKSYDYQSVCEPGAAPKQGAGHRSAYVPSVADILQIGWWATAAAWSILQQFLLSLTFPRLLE
T1 sequence (P54289 957-1103 partner limits assumed): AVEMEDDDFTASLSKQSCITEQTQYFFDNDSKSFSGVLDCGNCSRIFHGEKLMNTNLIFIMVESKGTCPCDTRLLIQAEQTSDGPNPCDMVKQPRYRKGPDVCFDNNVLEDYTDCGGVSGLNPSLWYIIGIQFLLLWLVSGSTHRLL

For `CC1CN(c2ncc(C(=O)N(Cc3ccccc3)C(C)C)c(-c3ccccc3F)n2)CC(C)O1` (stereo not drawn) [compound 69], the figures for the IC50 in assay [1], in assay [2] and in assay [3] were 2 to 10 µM, above 10 µM and above 10 µM, respectively.
In the case of `CC(C)N(C(=O)c1cnc(N2CCCCC2)nc1-c1ccccc1F)c1ccc2c(c1)OCO2` [compound 70], the results for the IC50 in assay [1], in assay [2] and in assay [3] were below 2 µM, 2 to 10 µM and above 10 µM, respectively.
The matching figures for `O=C(c1cnc(N2CCOCC2)nc1-c1ccccc1F)N1CC=C(c2ccc(F)cc2)CC1` [compound 71]: above 10 µM, above 10 µM and above 10 µM.
The matching figures for `CC(C)N(Cc1ccccc1)C(=O)c1cnc(Nc2cccc(C(N)=O)c2)nc1-c1ccccc1F` [compound 73]: above 10 µM, above 10 µM and above 10 µM.
For `COc1cccc(CN(C(=O)c2cnc(N3CCOCC3)nc2-c2ccccc2F)C(C)C)c1` [compound 74], the figures for the IC50 in assay [1], in assay [2] and in assay [3] were 2 to 10 µM, 2 to 10 µM and above 10 µM, respectively.
Take `N#CCCN(Cc1ccccc1)C(=O)c1cnc(N2CCOCC2)nc1-c1ccccc1F` [compound 75]: the IC50 in assay [1], in assay [2] and in assay [3] was above 10 µM each time.
Consider `CC(C)N(C(=O)c1cnc(N2CCOCC2)nc1-c1ccccc1F)c1cccc2ccccc12` [compound 76], for which the IC50 in assay [1], in assay [2] and in assay [3] was above 10 µM each time.
As to `O=C(c1cnc(N2CCCCC2)nc1-c1ccccc1F)N(Cc1ccc2c(c1)CCO2)C1CC1` [compound 77], the IC50 in assay [1] was 2 to 10 µM; in assay [2] it was 2 to 10 µM; in assay [3], above 10 µM.
Take `CC(C)N(Cc1ccccc1)C(=O)c1cnc(N2CCc3ccccc3C2)nc1-c1ccccc1F` [compound 78]: the values for the IC50 in assay [1], in assay [2] and in assay [3] were below 2 µM, 2 to 10 µM and 2 to 10 µM, respectively.
With `O=C(NC1CC1)c1cnc(N2CCOCC2)nc1-c1ccccc1F` [compound 79], the IC50 in assay [1], in assay [2] and in assay [3] was above 10 µM each time.
In the case of `O=C(c1cnc(N2CCSCC2)nc1-c1ccccc1F)N(Cc1ccccc1)C1CCC1` [compound 80], the half-maximal inhibitory concentration (IC50) in assay [1] is 2 to 10 µM; in assay [2], 2 to 10 µM; in assay [3], above 10 µM.
Regarding `CCC(COC)N(Cc1ccccc1)C(=O)c1cnc(N2CCSCC2)nc1-c1ccccc1F` (stereo not drawn) [compound 81], the IC50 in assay [1] is 2 to 10 µM; in assay [2], 2 to 10 µM; in assay [3], above 10 µM.
With `CC(C)N(C(=O)c1cnc(N2CCCCC2)nc1-c1ccccc1Cl)c1ccccc1` [compound 82], the figures for the IC50 in assay [1], in assay [2] and in assay [3] were 2 to 10 µM, above 10 µM and above 10 µM, respectively.
As to `CCN(CCOC)c1ncc(C(=O)N(Cc2ccccc2)C(C)C)c(-c2ccccc2F)n1` [compound 83], the IC50 in assay [1] is below 2 µM; in assay [2] it was 2 to 10 µM; in assay [3], 2 to 10 µM.
With `CC1COc2ccccc2N1C(=O)c1cnc(N2CCOCC2)nc1-c1ccccc1F` (stereo not drawn) [compound 84], the IC50 in assay [1], in assay [2] and in assay [3] was above 10 µM each time.
On to `O=C(c1cnc(N2CCSCC2)nc1-c1ccccc1F)N(Cc1ccc(C(F)(F)F)cc1)C1CC1` [compound 85], for which the figures for the IC50 in assay [1], in assay [2] and in assay [3] were above 10 µM, 2 to 10 µM and 2 to 10 µM, respectively.
As to `COc1cccc(N(C(=O)c2cnc(N3CCN(C)CC3)nc2-c2ccccc2F)C(C)C)c1` [compound 87], the IC50 in assay [1], in assay [2] and in assay [3] was above 10 µM each time.
For the molecule `CC(C)N(C(=O)c1cnc(N2CCOCC2)nc1-c1ccccc1F)c1ccccc1` [compound 88], the results for the IC50 in assay [1], in assay [2] and in assay [3] were 2 to 10 µM, above 10 µM and above 10 µM, respectively.
For the molecule `COc1cccc(OC)c1-c1nc(N2CCOCC2)ncc1C(=O)N(Cc1ccccc1)C(C)C` [compound 89], the IC50 in assay [1], in assay [2] and in assay [3] was above 10 µM in each case.
Consider `O=C(c1cnc(N2CCCCC2)nc1-c1ccccc1F)N(Cc1ccccc1)C1CC1` [compound 90], for which the IC50 in assay [1], in assay [2] and in assay [3] was 2 to 10 µM throughout.
For `O=C(c1cnc(N2CCOCC2)nc1-c1ccccc1F)N1CC=C(c2ccccc2)CC1` [compound 91], the IC50 in assay [1], in assay [2] and in assay [3] was above 10 µM each time.
Consider `CC(C)N(Cc1ccccc1)C(=O)c1cnc(N2CCC3CCCCC3C2)nc1-c1ccccc1F` (stereo not drawn) [compound 92], for which the IC50 in assay [1] was below 2 µM; in assay [2], above 10 µM; in assay [3], above 10 µM.
Turning to `CC(C)N(C(=O)c1cnc(N2CCCCC2)nc1-c1ccccc1F)c1ccccc1` [compound 93], the values for the IC50 in assay [1], in assay [2] and in assay [3] were 2 to 10 µM, 2 to 10 µM and above 10 µM, respectively.
Consider `CC(C)N(Cc1ccc2c(c1)OCO2)C(=O)c1cnc(N2CCCCC2)nc1-c1ccccc1F` [compound 94], for which the IC50 in assay [1] is below 2 µM; in assay [2], below 2 µM; in assay [3], 2 to 10 µM.
In the case of `CCN(CCC#N)c1ncc(C(=O)N(Cc2ccccc2)C(C)C)c(-c2ccccc2F)n1` [compound 96], the IC50 is below 2 µM in assay [1], 2 to 10 µM in assay [2] and above 10 µM in assay [3].
The corresponding values for `O=C(NC1CC1c1ccccc1)c1cnc(N2CCOCC2)nc1-c1ccccc1F` (stereo not drawn) [compound 97] are above 10 µM, above 10 µM and above 10 µM.
Consider `CC(C)N(Cc1ccccc1)C(=O)c1cnc(N2CCSCC2)nc1-c1ccccc1F` [compound 98], for which the IC50 was below 2 µM in assay [1], 2 to 10 µM in assay [2] and 2 to 10 µM in assay [3].
As to `O=C(c1cnc(N2CCOCC2)nc1-c1ccccc1F)N(Cc1cnc2ccccc2c1)C1CC1` [compound 99], the IC50 in assay [1], in assay [2] and in assay [3] was above 10 µM throughout.
As to `O=C(c1cnc(N2CCOCC2)nc1-c1ccccc1F)N(Cc1ccccc1)C1CC1` [compound 100], the IC50 in assay [1] was 2 to 10 µM; in assay [2], 2 to 10 µM; in assay [3], above 10 µM.
For `CC(C)N(C(=O)c1cnc(N2CCCCC2)nc1-c1ccccc1Cl)c1cccc(C#N)c1` [compound 101], the figures for the IC50 in assay [1], in assay [2] and in assay [3] were 2 to 10 µM, 2 to 10 µM and above 10 µM, respectively.
In the case of `N=C(N)NCCCNC(=O)c1cnc(N2CCC3CCCCC3C2)nc1-c1ccccc1F` (stereo not drawn) [compound 102], the IC50 in assay [1], in assay [2] and in assay [3] was above 10 µM throughout.
In the case of `CCN(CCOC)c1ncc(C(=O)N(Cc2cccc(OC)c2)C(C)C)c(-c2ccccc2F)n1` [compound 103], the IC50 in assay [1] is below 2 µM; in assay [2] it was below 2 µM; in assay [3], above 10 µM.
As to `COc1cccc(N(C(=O)c2c(C)nc(N3CCCCC3)nc2-c2ccccc2F)C(C)C)c1` [compound 104], the IC50 in assay [1] was above 10 µM; in assay [2] it was 2 to 10 µM; in assay [3], above 10 µM.
Regarding `CC(C)N(C(=O)c1cnc(N2CCC3CCCCC3C2)nc1-c1ccccc1F)c1ccccc1` (stereo not drawn) [compound 105], the IC50 in assay [1] is 2 to 10 µM; in assay [2], 2 to 10 µM; in assay [3], above 10 µM.
Turning to `CC(C)N(Cc1ccccc1)C(=O)c1cnc(Nc2nc3ccccc3[nH]2)nc1-c1ccccc1F` [compound 106], the IC50 in assay [1], in assay [2] and in assay [3] was above 10 µM each time.
As to `O=C(c1cnc(N2CCOCC2)nc1-c1ccccc1F)N1CCc2ccccc2C1` [compound 107], the IC50 in assay [1], in assay [2] and in assay [3] was above 10 µM throughout.
On to `COc1ccc(N(C(=O)c2cnc(N3CCCCC3)nc2-c2ccccc2F)C(C)C)cc1` [compound 108], for which the IC50 in assay [1] is below 2 µM; in assay [2] it was 2 to 10 µM; in assay [3], above 10 µM.
With `O=C(c1cnc(N2CCSCC2)nc1-c1ccccc1F)N(Cc1ccccc1)C1CC1` [compound 109], the results for the IC50 in assay [1], in assay [2] and in assay [3] were 2 to 10 µM, 2 to 10 µM and above 10 µM, respectively.
Turning to `O=C(c1cnc(N2CCOCC2)nc1-c1ccccc1F)N(Cc1cccc(F)c1)C1CC1` [compound 110], the IC50 in assay [1] was 2 to 10 µM; in assay [2], above 10 µM; in assay [3] it was above 10 µM.

By IC50 is commonly meant the concentration that inhibits the measured activity by half. A higher IC50 goes with weaker potency.
